Test results reported in patent US5232913A, “Antihepatopathic composition” (Senju Pharmaceutical Co., Ltd., priority 1990, dated 1993).
Where two headings read alike, the source gives them in different places.

Tested on: acetaminophen-induced hepatic impairment
Assay: Effect on acetaminophen-induced hepatic impairment
Format: in vivo, rat
Settings: Male SD rats; for s-GOT % inhibition / s-GPT % inhibition / inhibitory effect on acetaminophen-induced hepatic impairment (antihepatopathic effect, in words) / inhibition at 500 µmol/kg: 0.5 mmole/kg orally; for s-GOT % inhibition / s-GPT % inhibition / inhibition at 500 µmol/kg: one hour before acetaminophen 300 mg/kg i.p., versus physiological saline control; for s-GOT % inhibition / s-GPT % inhibition / s-GOT / s-GPT / inhibition at 500 µmol/kg: serum after 24 hours; for inhibitory effect on acetaminophen-induced hepatic impairment (antihepatopathic effect, in words): acetaminophen 300 mg/kg i.p.; for s-GOT / s-GPT: test substance 0.5 mmole/kg orally, one hour later acetaminophen 300 mg/kg i.p., mean ± S.E., n = 7-10; for inhibition at 500 µmol/kg: Rattus norvegicus
Procedure: Method; Male SD rats (body weights ca. 180 g) purchased form Japan SLC were used. The test substance was orally administered (0.5 mmole/kg) and one hour later 300 mg/kg of acetaminophen was intraperitoneally administered. After 24 hours, blood was drawn from the abdominal aorta and the serum was separated. Using this serum, s-GOT and GPT were determined.

Structure (SMILES): CCOC(=O)C(C)CSCC(NC(=O)CCC(N)C(=O)O)C(=O)NCC(=O)OC(C)C (stereo not drawn) [compound 7, S-(2-Methyl-2-carbethoxyethyl)glutathione isopropyl ester]
- s-GOT % inhibition: 70.2%
- s-GPT % inhibition: 74.3%
- inhibitory effect on acetaminophen-induced hepatic impairment (antihepatopathic effect, in words): significant antihepatopathic effects
- s-GOT: 1570 ± 511 IU/l
- s-GPT: 529 ± 168 IU/l

Structure (SMILES): CC(CSC[C@H](NC(=O)CC[C@H](N)C(=O)O)C(=O)NCC(=O)O)C(=O)O (stereo partly drawn) [compound 1, S-(2-carboxypropyl)glutathione]
- inhibitory effect on acetaminophen-induced hepatic impairment (antihepatopathic effect, in words): significant antihepatopathic effects
- s-GOT: 1259 ± 424 IU/l
- s-GPT: 337 ± 117 IU/l
- inhibition at 500 µmol/kg (read-out: s-GOT % inhibition): 76.1%
- inhibition at 500 µmol/kg (read-out: s-GPT % inhibition): 83.6%

Structure (SMILES): CC(C)OC(=O)CC(C)SC[C@H](NC(=O)CC[C@H](N)C(=O)O)C(=O)NCC(=O)O (stereo partly drawn) [compound 9, S-(1-Methyl-2-carboisopropoxyethyl)glutathione]
- inhibitory effect on acetaminophen-induced hepatic impairment (antihepatopathic effect, in words): significant antihepatopathic effects
- s-GOT: 171 ± 71 IU/l
- s-GPT: 43 ± 21 IU/l
- inhibition at 500 µmol/kg (read-out: s-GOT % inhibition): 96.8%
- inhibition at 500 µmol/kg (read-out: s-GPT % inhibition): 97.9%

Structure (SMILES): CC(CSC[C@H](NC(=O)CC[C@H](N)C(=O)O)C(=O)NCC(=O)O)C(=O)OCc1ccccc1 (stereo partly drawn) [compound 6, S-[2-Methyl-2-carbobenzoxyethyl]glutathione]
- s-GOT: 2968 ± 824 IU/l
- s-GPT: 1384 ± 421 IU/l
- inhibition at 500 µmol/kg (read-out: s-GOT % inhibition): 43.7%
- inhibition at 500 µmol/kg (read-out: s-GPT % inhibition): 32.8%

Structure (SMILES): CC(C)COC(=O)C(C)CSC[C@H](NC(=O)CC[C@H](N)C(=O)O)C(=O)NCC(=O)O (stereo partly drawn) [compound 5, S-(2-Methyl-2-carboisobutoxyethyl)glutathione]
- s-GOT % inhibition: 43.6%
- s-GPT % inhibition: 32.8%
- s-GOT: 2972 ± 803 IU/l
- s-GPT: 1384 ± 417 IU/l

Structure (SMILES): CCOC(=O)CCSC[C@H](NC(=O)CC[C@H](N)C(=O)O)C(=O)NCC(=O)O [compound 4, S-(2-Carbethoxyethyl)glutathione]
- inhibitory effect on acetaminophen-induced hepatic impairment (antihepatopathic effect, in words): significant antihepatopathic effects
- s-GOT: 1935 ± 530 IU/l
- s-GPT: 598 ± 226 IU/l
- inhibition at 500 µmol/kg (read-out: s-GOT % inhibition): 63.3%
- inhibition at 500 µmol/kg (read-out: s-GPT % inhibition): 71%

Structure (SMILES): CC(C)COC(=O)C(C)CSCC(NC(=O)CCC(N)C(=O)O)C(=O)NCC(=O)OC(C)C (stereo not drawn) [compound 8, S-(2-Methyl-2-carbiosobutoxyethyl)glutathione isopropyl ester]
- s-GOT % inhibition: 96.9%
- s-GPT % inhibition: 97.5%
- inhibitory effect on acetaminophen-induced hepatic impairment (antihepatopathic effect, in words): significant antihepatopathic effects
- s-GOT: 163 ± 89 IU/l
- s-GPT: 52 ± 29 IU/l

Structure (SMILES): CCOC(=O)C(C)CSC[C@H](NC(=O)CC[C@H](N)C(=O)O)C(=O)NCC(=O)O (stereo partly drawn) [compound 2, S-(2-carbethoxypropyl)glutathione]
- inhibitory effect on acetaminophen-induced hepatic impairment (antihepatopathic effect, in words): significant antihepatopathic effects
- s-GOT: 841 ± 354 IU/l
- s-GPT: 195 ± 81 IU/l
- inhibition at 500 µmol/kg (read-out: s-GOT % inhibition): 84%
- inhibition at 500 µmol/kg (read-out: s-GPT % inhibition): 90.5%

Structure (SMILES): N[C@@H](CCC(=O)N[C@@H](CSCCC(=O)O)C(=O)NCC(=O)O)C(=O)O [compound 3, S-(2-Carboxyethyl)glutathione]
- inhibitory effect on acetaminophen-induced hepatic impairment (antihepatopathic effect, in words): significant antihepatopathic effects
- s-GOT: 1968 ± 626 IU/l
- s-GPT: 530 ± 180 IU/l
- inhibition at 500 µmol/kg (read-out: s-GOT % inhibition): 62.6%
- inhibition at 500 µmol/kg (read-out: s-GPT % inhibition): 74.3%
